The record followed here is patent publication US7732401B2, “Inhibitor of TGF-β activation reaction” (Riken, priority 2007, dated 2010).

“Also recorded” adds a separate entry of the source. Where no end group is shown, it is not given here.

The target in assay [1] is T1, plasma kallikrein (Homo sapiens, UniProt P03952).
T1 construct: purchased SIGMA
Briefly: Cleavage of recombinant human LAP by plasma kallikrein, Western blot semi-quantitative analysis. As to conditions: Example 3, peptide 2.5 mg/ml, 37° C., 40 minutes, FIG. 6. Type of assay: biochemical. On the procedure: When 2 μg of recombinant human LAP R & D) (final concentration: 66 μg/ml) was incubated with plasma kallikrein (SIGMA; final concentration of 20 μg/ml), QP peptide, QPA peptide, T200 peptide, and QPQ peptide (SEQ ID NO: 4) were added thereto at a final concentration of 2.5 mg/ml, followed by incubation at 37° C. for 40 minutes. Thereafter, electrophoresis (room temperature, 27 mA, 50 minutes) was carried out using 13.5% polyacrylamide gel, so as to separate LAP (molecular weight: 41 kDa), a LAP degradation product (molecular weight: 38 kDa), and BSA (final concentration: 0.3 mg/ml; molecular weight: […]) used as an additive. Each separated protein or decomposed product was transferred onto a PVDF membrane by using a semi-dry transferring apparatus. According to the method of Akita et al. (Gastroenterology 123; 352-364, 2002), the membrane was then incubated first with a mouse anti-LAP monoclonal antibody (R & D) at a final concentration of 5 μg/ml or a mouse anti-L59 cleavage section-recognizing monoclonal antibody (homemade; International Publication WO2005/023870) at a final concentration of 20 μg/ml, at room temperature for 60 minutes, and then with a horseradish peroxidase-conjugated goat anti-mouse second antibody (Jackson ImmunoResearch Laboratories) at a final concentration of 1 μg/ml at room temperature for 60 minutes. Bands were then developed using an ECL plus reagent (GE Healthcare), so as to carry out the semi-quantitative analysis of the influence of each peptide on the attenuation of LAP band and the generation of LAP degradation product (FIG. 6).
Background: In western blotting, separated proteins are transferred to a membrane and probed.

The test system of assay [2] is endotoxin (LPS)-preadministered partially-hepatectomized mice. The assay is described as follows: LPS-preadministered partially-hepatectomized mice model for impaired liver regeneration, PCNA staining. Type of assay: in vivo, mouse. The conditions noted are these: Example 2, 200 μg/head i.v., 8 times; for improvement of impaired liver regeneration due to preadministration of LPS: PCNA staining, FIG. 3 and 4.

The subject of assay [3] is active TGF-β1. Briefly: Amount of active TGF-β1 in conditioned medium of hepatic stellate cells (ELISA). Type of assay: cell-based, rat. As to conditions: for amount of active TGF-β generated into the conditioned medium, of the control / TGF-β (active TGF-β generated into the conditioned medium): Example 1, peptide 1 mM; for TGF-β (active TGF-β generated into the conditioned medium): Table 1; for inhibition of generation of the active TGF-β in the conditioned medium observed in control cells: Example 4, peptide 0.5 mM. The protocol:
According to the method previously reported (Okuno M. et al., Gastroenterology 2001; 120: 1784-1800), hepatic stellate cells were isolated from the liver of male Wistar rats (body weight: 350 to 400 g; Japan Clea), and the isolated cells were then seeded in a concentration of 1×10^6 cells/dish on a 3.5-cm culture plastic dish. Thereafter, the cells were cultured in 1 ml of Dulbecco's modified Eagle medium (DMEM; manufactured by SIGMA) containing 10% fetal calf serum (FCS; manufactured by GIBCO).
A 60 mM aqueous stock solution of each peptide was prepared, and the peptide was then dissolved in a medium to make a final concentration of 1 mM. Until the 3rd day of isolation, the aforementioned cells were treated in a DMEM medium containing 10% FCS. On the 4th day, the medium was exchanged with serum free DMEM containing 0.1% bovine serum albumin (BSA) and each peptide with a final concentration of 1 mM, and the culture was further continued for 2 to 4 days. Thereafter, the culture medium was collected as a conditioned medium, and the amount of active TGF-β1 present in the conditioned medium was measured using an ELISA kit manufactured by PROMEGA. At the same time, the state of the cells was observed under a microscope (DMIRB; manufactured by Leica) and was then photographed.
Each peptide was dissolved in a medium to a final concentration of 0.5 mM (approximately 500 μg/ml). At the 1st day of isolation, the aforementioned cells were treated in a DMEM medium containing 10% FCS. On the 2nd day, the medium was changed with serum free DMEM containing 0.1% BSA and each peptide at a final concentration of 0.5 mM, and the culture was further continued for 2 to 7 days. Thereafter, the culture medium was collected as a conditioned medium, and the amount of active TGF-β1 present in the conditioned medium was then quantitated using an ELISA kit manufactured by PROMEGA. At the same time, the state of the cells was observed under a microscope (DMIRB; manufactured by Leica) and photographed.
For orientation: An ELISA detects its analyte on a solid surface through an enzyme-linked reagent.

T1 sequence (P03952 20-638, species assumed): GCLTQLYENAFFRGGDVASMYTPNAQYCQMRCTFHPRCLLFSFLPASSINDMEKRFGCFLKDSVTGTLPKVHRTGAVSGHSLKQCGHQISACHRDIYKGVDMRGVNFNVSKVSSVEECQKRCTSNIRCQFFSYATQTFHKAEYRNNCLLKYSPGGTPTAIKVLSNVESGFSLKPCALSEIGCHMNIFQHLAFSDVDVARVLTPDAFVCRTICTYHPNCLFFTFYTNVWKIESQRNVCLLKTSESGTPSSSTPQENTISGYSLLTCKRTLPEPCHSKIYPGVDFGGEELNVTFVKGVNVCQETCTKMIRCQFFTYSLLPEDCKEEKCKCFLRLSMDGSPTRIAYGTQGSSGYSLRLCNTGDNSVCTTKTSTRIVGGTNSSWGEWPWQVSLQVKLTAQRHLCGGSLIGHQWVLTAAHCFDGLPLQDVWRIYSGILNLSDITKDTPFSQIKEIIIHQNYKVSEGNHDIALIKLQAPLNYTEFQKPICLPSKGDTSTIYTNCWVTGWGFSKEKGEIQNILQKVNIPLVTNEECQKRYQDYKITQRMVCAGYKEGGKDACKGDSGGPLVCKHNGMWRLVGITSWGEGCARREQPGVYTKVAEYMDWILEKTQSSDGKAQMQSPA

As for “TGVVRQWLSRG [T200 peptide, reference compound]”, the “inhibition of LAP cleavage reaction (attenuation of LAP band, generation of LAP degradation product)” value (shortened to “inhibition of LAP cleavage reaction”) in assay [1] is recorded as “only a weak inhibitory effect”. In addition, in assay [2], the “improvement of impaired liver regeneration due to preadministration of LPS” value (“improvement” for short) is given as “did not exhibit such an improving effect”. The “improvement” value in assay [2] (listed as P200 peptide) is “did not exhibited any such improving effects”. Moreover, in assay [3], the “amount of active TGF-β generated into the conditioned medium, of the control” value was found to be 74% and the “TGF-β (active TGF-β generated into the conditioned medium)” value was 160 ± 19 pg/mL.
On to “N-52QILSAAAAASP62-C (QILSAAALASP) [QPA peptide, mutant of QP peptide with Lys56, Leu57, Arg58 and Leu59 substituted with Ala]”, for which, in assay [1], the “inhibition of LAP cleavage reaction” value is listed as “only a weak inhibitory effect”. Besides, the “percentage of PCNA positive cells” value in assay [2] (48 hours after PH, FIG. 4) worked out at 47%. In assay [2], the “improvement” value was “significantly improved”. Further, in assay [3], the “amount of active TGF-β generated into the conditioned medium, of the control” value amounted to 2%; the “TGF-β (active TGF-β generated into the conditioned medium)” value amounted to 4 ± 1 pg/mL; the “inhibition of generation of the active TGF-β in the conditioned medium observed in control cells” value (from here on “inhibition of generation … in control cells”) was 25%.
Consider “N-52QILSQQQQASP62-C [QPQ peptide, mutant of QP peptide with Lys56, Leu57, Arg58 and Leu59 substituted with Gln]”, for which the “inhibition of LAP cleavage reaction” value in assay [1] is recorded as “more strongly than the QP peptide”. The “inhibition of generation … in control cells” value in assay [3] is 90%.
With QILSKLRLASP [QP peptide], the “inhibition of LAP cleavage reaction” value in assay [1] is “significantly inhibited”. Besides, the “improvement” value in assay [2] was “significantly improved; also recorded: completely improved”. Also, the “inhibition of generation … in control cells” value in assay [3] is recorded as 55%.
